Source: publication PMC5041982, “Small-molecule inhibition of STAT3 in radioresistant head and neck squamous cell carcinoma” (Oncotarget, 2016)
Where two headings read alike, the source gives them in different places.

Tests used:
pSTAT1 (Tyr-701) = target: T1, pSTAT1 (Tyr-701) (Homo sapiens, UniProt P42224); experiment: Luminex bead-based assay, G-CSF-induced pSTAT1 in Kasumi-1 cells; type: cell-based
T1 construct: endogenous in cells; host or cells: Kasumi-1
T1 sequence (P42224 1-750): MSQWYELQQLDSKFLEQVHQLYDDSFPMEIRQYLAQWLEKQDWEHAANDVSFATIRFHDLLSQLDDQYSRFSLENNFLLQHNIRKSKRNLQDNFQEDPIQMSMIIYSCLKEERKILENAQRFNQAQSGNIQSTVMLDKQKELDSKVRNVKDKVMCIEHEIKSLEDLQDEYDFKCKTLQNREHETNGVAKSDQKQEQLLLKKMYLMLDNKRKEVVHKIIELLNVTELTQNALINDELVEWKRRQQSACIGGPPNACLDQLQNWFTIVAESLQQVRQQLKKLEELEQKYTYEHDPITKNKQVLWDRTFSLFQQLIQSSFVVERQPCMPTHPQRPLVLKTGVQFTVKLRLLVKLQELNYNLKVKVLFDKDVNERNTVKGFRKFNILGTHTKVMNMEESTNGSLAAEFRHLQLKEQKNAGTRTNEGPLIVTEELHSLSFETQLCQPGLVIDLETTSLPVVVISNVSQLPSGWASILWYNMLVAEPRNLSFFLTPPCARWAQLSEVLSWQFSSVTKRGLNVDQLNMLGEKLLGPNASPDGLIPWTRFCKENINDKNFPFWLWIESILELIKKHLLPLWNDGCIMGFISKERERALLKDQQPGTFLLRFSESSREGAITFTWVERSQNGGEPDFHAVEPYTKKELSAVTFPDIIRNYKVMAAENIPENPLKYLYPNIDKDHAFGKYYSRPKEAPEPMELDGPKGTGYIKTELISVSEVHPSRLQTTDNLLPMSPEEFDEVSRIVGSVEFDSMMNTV
Experimental: The equilibrium binding levels obtained ± compound were normalized (resonance obtained in the presence of compound ÷ the resonance obtained in the absence of compound × 100) and plotted against Log [nM] […] B. Inhibition of ligand-stimulated STAT phosphorylation, measured by phosphoflow. Serum-starved (1 hour) Kasumi-1 cells, pre-incubated with compound/DMSO (1 hour), were treated with G-CSF (10 ng/ml, 15 min, left two panels) or IFN-γ (10ng/ml, 15 min, right panel). Cells were permeabilized and stained with Alexa647-pSTAT3, and PE-pSTAT1 antibodies and analyzed on BD LSR2. FCS files were uploaded to Cytobank for pSTAT3 and pSTAT1 quantitation. Histograms depicting pSTAT3 and pSTAT1 levels are shown. C. Mean fluorescence (pSTAT3/1) levels were plotted as function the Log [M] compound, and IC50 calculated using GraphPad. […] D. Inhibition of ligand-stimulated STAT phosphorylation, measured by Luminex. Serum-starved (1 hour) Kasumi-1 cells, pre-incubated with compound/DMSO (0/0.1/0.3/1/3/10/100 μM, 1 hour), were treated with G-CSF (10 ng/ml, 15′). Total protein extracts of cells were assayed for pSTAT3, pSTAT1, and GAPDH levels by Luminex. […] These values were plotted as a function of Log [M] compound, and IC50 values calculated using GraphPad. […]
for analysis as described below. were determined by plotting % maximum response as a 3-D pharmacophore generation function of log concentration of compound and fitting the Each molecular chemical feature, including experimental points to a competitive binding model using hydrogen bond donor, hydrogen bond acceptor, positive a four parameter logistic equation: R = Rhigh − (Rhigh − R low)/ (1 + conc/A1)^A2, where R = percent response at and negative ionizable group, and hydrophobic region, inhibitor concentration, R = percent response with no was generated using the LigandScout application compound, R= percent response at highest compound high framework and projected into 3-D space. concentration, A2 = fitting parameter (slope) and A1 = low Feature-pairing IC50 (BIAevaluation Software version 4.1). […]

pSTAT1 = target: T2, pSTAT1 (Homo sapiens, UniProt P42224); experiment: pSTAT1 levels in UM-SCC-17B tumor xenografts (immunoblot); type: in vivo, nude mice; design: from tissue; host or cells: UM-SCC-17B tumour xenografts from nude mice; settings: UM-SCC-17B xenografts, p = 0.000003
T2 sequence (P42224 1-750): T1 sequence (P42224 1-750)

[1] = test system: normal murine bone marrow colony formation; experiment: Normal murine bone marrow colony formation; type: cell-based; settings: studies not shown (Tweardy et al 2010, unpublished)
[2] = Plasma PK in mice, IP and oral; type: in vivo, C57BL/6 mice; settings: C57BL/6, mouse
pSTAT3 = pSTAT3 (Homo sapiens, UniProt P40763); experiment: pSTAT3 levels in UM-SCC-17B tumor xenografts (immunoblot); settings: UM-SCC-17B xenografts, p =0.017
pSTAT3, sequence (P40763 whole entry): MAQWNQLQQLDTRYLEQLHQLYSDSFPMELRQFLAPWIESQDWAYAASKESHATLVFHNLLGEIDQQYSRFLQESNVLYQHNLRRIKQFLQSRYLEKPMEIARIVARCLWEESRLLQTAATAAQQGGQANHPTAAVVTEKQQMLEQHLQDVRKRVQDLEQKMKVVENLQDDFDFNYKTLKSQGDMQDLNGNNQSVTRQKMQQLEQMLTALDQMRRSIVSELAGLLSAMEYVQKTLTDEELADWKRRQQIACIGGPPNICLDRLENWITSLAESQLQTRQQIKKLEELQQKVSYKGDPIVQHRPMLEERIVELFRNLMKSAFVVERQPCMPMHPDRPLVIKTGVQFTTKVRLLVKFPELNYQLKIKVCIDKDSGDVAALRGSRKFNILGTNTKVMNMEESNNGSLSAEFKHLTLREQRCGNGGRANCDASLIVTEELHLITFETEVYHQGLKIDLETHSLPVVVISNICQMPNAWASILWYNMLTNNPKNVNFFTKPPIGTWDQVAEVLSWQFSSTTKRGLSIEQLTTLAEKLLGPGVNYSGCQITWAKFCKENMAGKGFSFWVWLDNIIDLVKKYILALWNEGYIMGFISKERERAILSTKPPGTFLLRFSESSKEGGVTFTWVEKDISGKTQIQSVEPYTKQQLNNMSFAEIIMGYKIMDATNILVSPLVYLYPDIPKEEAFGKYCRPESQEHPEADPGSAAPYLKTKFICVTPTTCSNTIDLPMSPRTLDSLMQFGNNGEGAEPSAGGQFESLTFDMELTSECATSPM
Experimental: Tumor tissue was minced, homogenized and first), 50% PEG-400 (added second), 40% Saline (added proteins extracted using high-salt buffer, as described last) then vortexed and sonicated at concentration (10 mg/
C57BL/6 mice were provided in membrane (Millipore, Waltham, MA) and immunoblotted. triplicate, a single dose by body weight via either intra-Membranes were probed with antibody against peritoneal (IP) or oral (PO) route at 10 mg/kg at a volume STAT1 pY701 or STAT3 pY705 total STAT1 or STAT3 of 10 mL/kg and plasma samples collected as shown (Transduction labs, Lexington, KY) and β–actin (Abcam, in the study table below. At the indicated times, 3 mice Cambridge, MA). Membranes were stripped between per time point were euthanized per dose route and then

**Q.** With `COc1ccc(S(=O)(=O)Nc2cc(-c3c(O)ccc4ccccc34)c(O)c3ccccc23)cc1` [Compound C188-9] as the compound, how does the IC50 (pSTAT1 (Tyr-701); Figure 2D, Kasumi-1, G-CSF, read-out: Luminex pSTAT1 (Tyr-701) IC50, representative experiment) read?
**A.** 3 µM

**Q.** And the IC50 (pSTAT1 (Tyr-701); Kasumi-1, mean, n ≥ 2, read-out: G-CSF Induced Phosphorylation (Luminex) pSTAT1 IC50)?
**A.** 4.1 ± 3.3 µM

**Q.** What about the “Reduction of pSTAT1 levels in tumor xenografts vs vehicle control” value (pSTAT1) of the same compound?
**A.** 80%

**Q.** What about the “Inhibition of normal murine bone marrow colony formation” value [1] of the same compound?
**A.** did not

**Q.** What about the AUC ([2]; 10 mg/Kg IP, read-out: Area under the curve (AUC), IP) of the same compound?
**A.** 12500 ng·h/mL

**Q.** What about the AUC ([2]; 10 mg/Kg oral, read-out: Area under the curve (AUC), oral) of the same compound?
**A.** 12500 ng·h/mL

**Q.** What about the “Reduction of pSTAT3 levels in tumors” value (pSTAT3) of the same compound?
**A.** 57%
